Data taken from patent publication US10463644B2, “Uses of sesquiterpene lactone compounds and their derivatives in drugs preparation” (ACCENDATECH, priority 2013, dated 2019).

Tests used:
[1] = system: TNF-α secreted by synoviocyte; assay: Content of TNF-α in culture supernatant of synoviocyte of RA model rats given test compound; format: in vivo; settings: rat RA model, dose 30 mg/kg.2d; normal control 0.38 ± 0.027, NaCl 0.74 ± 0.098
Excerpt: (§1) Take Compound 1-50 prepared as per the method according to the present invention and employ the method provided in Reference to prepare model, group drugs and prepare culture supernatant of rat synoviocyte.
(§2) Employ the method provided in Reference to investigate the effects of the test compounds on the synoviocyte to secrete TNF-α and PGE2. Employ the method provided in Reference to investigate the effects of the test compounds on the synoviocyte to secrete IL-1β.
(§3) The experimental data of the test compound 1-50 at a dose of 30 mg/kg.2d as well as the normal control and NaCl group are as follows: […]

[2] = system: IL-1β secreted by synoviocyte; assay: Content of IL-1β in culture supernatant of synoviocyte of RA model rats given test compound; format: in vivo; settings: rat RA model, dose 30 mg/kg.2d; normal control 0.16 ± 0.034, NaCl 0.49 ± 0.136
Excerpt: as §1, §2, §3

[3] = system: PGE2 secreted by synoviocyte; assay: Content of PGE2 in culture supernatant of synoviocyte of RA model rats given test compound; format: in vivo; settings: rat RA model, dose 30 mg/kg.2d; normal control 8.34 ± 1.29, NaCl 32.44 ± 10.32
Excerpt: as §1, §2, §3

cancer stem cells = assay: Survival rate of cancer stem cells after test compound is added (flow cytometry, Annexin V-FITC/PI, clinical specimen); format: cell-based, patient
Excerpt: (§4) Take fresh or cryopreserved clinical specimen (acute myelogenous leukemia (AML, marker is CD34^+/CD38^+), chronic myelogenous leukemia (CML, Ph+/CD34+/CXCR4+), chronic lymphocytic leukemia (CLL,CD133+/CD19−/CD38−), skin cancer (CD34+), breast cancer (CD44+/CD24−/ESA+), ovarian cancer (CD44+/CD117+), brain tumor (CD133+) prostate cancer (CD44+/CD24−), head-neck squamous cell carcinoma (CD44+), laryngeal cancer (CD133+), pancreatic cancer (ESA+/CD44+/CD24+), retinoblastoma (ABCG2/ALDH1), Children hepatoblastoma (CD34+/THY1+/c-kit+), liver cancer (CD133+), malignant melanoma (CD133+), colorectal cancer (EpCAM^high/CD44+), colon adenocarcinoma (CD44^high), glioma (ABCG-2/BCRP1), gastrointestinal tumor (ABCG-2/BCRP1), nasopharynx cancer (ABCG2), brain glioma (Dlk-1/Pref-1), gastric cancer (CD45+), lung adenocarcinoma (Sca-1/CD45-/Pecam-/CD34+), lung cancer (CD133+CD34+CD44+)) of patient. Take the acute myelogenous leukemia as the example, conduct density gradient centrifugation with Ficoll and take out the middle mononuclear cells, re-suspend it with serum-free IMDM after centrifuged. Adjust the concentration of cells into 1×10^6/mL and lay 24-well plate with 1 mL in each well, and then treat 18 hours with the compound to select with corresponding concentration. Collect the cells and centrifuge them at 1500 rps for 8 minutes, re-suspend the precipitation with […], mark the antibodies related to leukemia stem cell, avoid light to incubate 30 minutes at room temperature and then centrifuge it at 1500 rps, then wash away the unbound antibody CD34^+CD38^+. Re-suspend it with 100 μl 1× Binding Buffer and add respectively 5 μl Annexin V-FITC and PI, then avoid light to incubate 15 minutes before add 200 μl 1× Binding Buffer, then use flow cytometry to examine the marked apoptosis within one hour.

cancer cells = assay: Survival rate of cancer cells after test compound is added (flow cytometry, Annexin V-FITC/PI, clinical specimen); format: cell-based, patient
Excerpt: as §4

normal cells = assay: Survival rate of normal cells after test compound is added (flow cytometry, Annexin V-FITC/PI); format: cell-based
Excerpt: as §4

[4] = Children hepatoblastoma, 10.0 μM
[5] = Children hepatoblastoma, 20.0 μM
[6] = Gastrointestinal tumor, 10.0 μM
[7] = Gastrointestinal tumor, 20.0 μM
[8] = Head and neck squamous cell carcinomas, 10.0 μM
[9] = Head and neck squamous cell carcinomas, 20.0 μM

CN(C)C[C@@H]1C(=O)O[C@H]2[C@H]1CCC1(CC1)[C@@H]1CCC3(CC3)[C@H]21.Cl [Compound 28]
96%: Survival rate (%) All cells (Stem cells and ordinary cells) (normal cells; 10.0 μM)
75%: Survival rate (%) Stem cells (cancer stem cells; Breast cancer, 20.0 μM) | Survival rate (%) Stem cells (cancer stem cells; Colorectal cancer, 20.0 μM) | Survival rate (%) Stem cells (cancer stem cells; [9])
84%: Survival rate (%) Stem cells (cancer stem cells; Malignant melanoma, 10.0 μM) | Survival rate (%) Stem cells (cancer stem cells; Prostate cancer, 10.0 μM) | Survival rate (%) Stem cells (cancer stem cells; Retinoblastoma, 10.0 μM) | Survival rate (%) Stem cells (cancer stem cells; Skin cancer, 10.0 μM)
80%: Survival rate (%) Stem cells (cancer stem cells; Retinoblastoma, 20.0 μM)
0.31 ± 0.067 ng/mL: Content of IL-1β in culture supernatant of synoviocyte (x ± s) [2]
95%: Survival rate (%) All cells (Stem cells and ordinary cells) (normal cells; 20.0 μM)
88%: Survival rate (%) Stem cells (cancer stem cells; Lung adenocarcinoma, 10.0 μM) | Survival rate (%) All cells (Stem cells and ordinary cells) (cancer cells; Colon adenocarcinoma, 10.0 μM) | Survival rate (%) All cells (Stem cells and ordinary cells) (cancer cells; Gastric cancer, 10.0 μM) | Survival rate (%) All cells (Stem cells and ordinary cells) (cancer cells; [6]) | Survival rate (%) All cells (Stem cells and ordinary cells) (cancer cells; Malignant melanoma, 20.0 μM) | Survival rate (%) All cells (Stem cells and ordinary cells) (cancer cells; Ovarian cancer, 10.0 μM) | Survival rate (%) All cells (Stem cells and ordinary cells) (cancer cells; Prostate cancer, 20.0 μM) | Survival rate (%) All cells (Stem cells and ordinary cells) (cancer cells; Skin cancer, 20.0 μM)
87%: Survival rate (%) Stem cells (cancer stem cells; AML, 10.0 μM) | Survival rate (%) Stem cells (cancer stem cells; Lung cancer, 10.0 μM) | Survival rate (%) All cells (Stem cells and ordinary cells) (cancer cells; AML, 20.0 μM) | Survival rate (%) All cells (Stem cells and ordinary cells) (cancer cells; Brain tumor, 20.0 μM) | Survival rate (%) All cells (Stem cells and ordinary cells) (cancer cells; Breast cancer, 10.0 μM) | Survival rate (%) All cells (Stem cells and ordinary cells) (cancer cells; CLL, 20.0 μM) | Survival rate (%) All cells (Stem cells and ordinary cells) (cancer cells; Colorectal cancer, 10.0 μM) | Survival rate (%) All cells (Stem cells and ordinary cells) (cancer cells; [8]) | Survival rate (%) All cells (Stem cells and ordinary cells) (cancer cells; Liver cancer, 20.0 μM) | Survival rate (%) All cells (Stem cells and ordinary cells) (cancer cells; Lung cancer, 20.0 μM)
92%: Survival rate (%) All cells (Stem cells and ordinary cells) (cancer cells; CML, 10.0 μM) | Survival rate (%) All cells (Stem cells and ordinary cells) (cancer cells; [4]) | Survival rate (%) All cells (Stem cells and ordinary cells) (cancer cells; Laryngeal cancer, 10.0 μM) | Survival rate (%) All cells (Stem cells and ordinary cells) (cancer cells; Nasopharynx cancer, 10.0 μM) | Survival rate (%) All cells (Stem cells and ordinary cells) (cancer cells; Pancreatic cancer, 20.0 μM) | Survival rate (%) Stem cells (normal cells; 20.0 μM)
86%: Survival rate (%) Stem cells (cancer stem cells; Pancreatic cancer, 10.0 μM) | Survival rate (%) All cells (Stem cells and ordinary cells) (cancer cells; Brain glioma, 20.0 μM) | Survival rate (%) All cells (Stem cells and ordinary cells) (cancer cells; Glioma, 20.0 μM)
82%: Survival rate (%) Stem cells (cancer stem cells; Brain glioma, 10.0 μM) | Survival rate (%) Stem cells (cancer stem cells; Brain tumor, 10.0 μM) | Survival rate (%) Stem cells (cancer stem cells; CLL, 10.0 μM) | Survival rate (%) Stem cells (cancer stem cells; Colon adenocarcinoma, 10.0 μM) | Survival rate (%) Stem cells (cancer stem cells; [6]) | Survival rate (%) Stem cells (cancer stem cells; Liver cancer, 10.0 μM)
78%: Survival rate (%) Stem cells (cancer stem cells; Malignant melanoma, 20.0 μM) | Survival rate (%) Stem cells (cancer stem cells; Pancreatic cancer, 20.0 μM) | Survival rate (%) Stem cells (cancer stem cells; Prostate cancer, 20.0 μM) | Survival rate (%) Stem cells (cancer stem cells; Skin cancer, 20.0 μM)
85%: Survival rate (%) Stem cells (cancer stem cells; CML, 10.0 μM) | Survival rate (%) Stem cells (cancer stem cells; [4]) | Survival rate (%) Stem cells (cancer stem cells; Glioma, 10.0 μM) | Survival rate (%) Stem cells (cancer stem cells; Laryngeal cancer, 10.0 μM) | Survival rate (%) Stem cells (cancer stem cells; Nasopharynx cancer, 10.0 μM) | Survival rate (%) Stem cells (cancer stem cells; Ovarian cancer, 10.0 μM) | Survival rate (%) All cells (Stem cells and ordinary cells) (cancer cells; Colon adenocarcinoma, 20.0 μM) | Survival rate (%) All cells (Stem cells and ordinary cells) (cancer cells; Ovarian cancer, 20.0 μM) | Survival rate (%) All cells (Stem cells and ordinary cells) (cancer cells; Retinoblastoma, 20.0 μM)
76%: Survival rate (%) Stem cells (cancer stem cells; AML, 20.0 μM) | Survival rate (%) Stem cells (cancer stem cells; Brain glioma, 20.0 μM) | Survival rate (%) Stem cells (cancer stem cells; [7]) | Survival rate (%) Stem cells (cancer stem cells; Lung cancer, 20.0 μM)
73%: Survival rate (%) Stem cells (cancer stem cells; Brain tumor, 20.0 μM) | Survival rate (%) Stem cells (cancer stem cells; CLL, 20.0 μM) | Survival rate (%) Stem cells (cancer stem cells; Liver cancer, 20.0 μM)
18.92 ± 1.98 ng/mL: Content of PGE2 in culture supernatant of synoviocyte (x ± s) [3]
74%: Survival rate (%) Stem cells (cancer stem cells; Colon adenocarcinoma, 20.0 μM)
79%: Survival rate (%) Stem cells (cancer stem cells; Gastric cancer, 10.0 μM) | Survival rate (%) Stem cells (cancer stem cells; Glioma, 20.0 μM) | Survival rate (%) Stem cells (cancer stem cells; Ovarian cancer, 20.0 μM)
89%: Survival rate (%) All cells (Stem cells and ordinary cells) (cancer cells; Brain glioma, 10.0 μM) | Survival rate (%) All cells (Stem cells and ordinary cells) (cancer cells; CML, 20.0 μM) | Survival rate (%) All cells (Stem cells and ordinary cells) (cancer cells; [5]) | Survival rate (%) All cells (Stem cells and ordinary cells) (cancer cells; [7]) | Survival rate (%) All cells (Stem cells and ordinary cells) (cancer cells; Laryngeal cancer, 20.0 μM) | Survival rate (%) All cells (Stem cells and ordinary cells) (cancer cells; Lung adenocarcinoma, 20.0 μM) | Survival rate (%) All cells (Stem cells and ordinary cells) (cancer cells; Nasopharynx cancer, 20.0 μM)
77%: Survival rate (%) Stem cells (cancer stem cells; CML, 20.0 μM) | Survival rate (%) Stem cells (cancer stem cells; [5]) | Survival rate (%) Stem cells (cancer stem cells; Laryngeal cancer, 20.0 μM) | Survival rate (%) Stem cells (cancer stem cells; Nasopharynx cancer, 20.0 μM)
90%: Survival rate (%) All cells (Stem cells and ordinary cells) (cancer cells; Retinoblastoma, 10.0 μM)
83%: Survival rate (%) All cells (Stem cells and ordinary cells) (cancer cells; Breast cancer, 20.0 μM) | Survival rate (%) All cells (Stem cells and ordinary cells) (cancer cells; Colorectal cancer, 20.0 μM) | Survival rate (%) All cells (Stem cells and ordinary cells) (cancer cells; [9])
0.47 ± 0.056 ng/mL: Content of TNF-α in culture supernatant of synoviocyte (x ± s) [1]
93%: Survival rate (%) All cells (Stem cells and ordinary cells) (cancer cells; Glioma, 10.0 μM) | Survival rate (%) All cells (Stem cells and ordinary cells) (cancer cells; Pancreatic cancer, 10.0 μM)
94%: Survival rate (%) All cells (Stem cells and ordinary cells) (cancer cells; AML, 10.0 μM) | Survival rate (%) All cells (Stem cells and ordinary cells) (cancer cells; Lung cancer, 10.0 μM) | Survival rate (%) Stem cells (normal cells; 10.0 μM)
81%: Survival rate (%) Stem cells (cancer stem cells; Breast cancer, 10.0 μM) | Survival rate (%) Stem cells (cancer stem cells; Colorectal cancer, 10.0 μM) | Survival rate (%) Stem cells (cancer stem cells; [8]) | Survival rate (%) Stem cells (cancer stem cells; Lung adenocarcinoma, 20.0 μM) | Survival rate (%) All cells (Stem cells and ordinary cells) (cancer cells; Gastric cancer, 20.0 μM)
91%: Survival rate (%) All cells (Stem cells and ordinary cells) (cancer cells; Brain tumor, 10.0 μM) | Survival rate (%) All cells (Stem cells and ordinary cells) (cancer cells; CLL, 10.0 μM) | Survival rate (%) All cells (Stem cells and ordinary cells) (cancer cells; Liver cancer, 10.0 μM) | Survival rate (%) All cells (Stem cells and ordinary cells) (cancer cells; Lung adenocarcinoma, 10.0 μM) | Survival rate (%) All cells (Stem cells and ordinary cells) (cancer cells; Malignant melanoma, 10.0 μM) | Survival rate (%) All cells (Stem cells and ordinary cells) (cancer cells; Prostate cancer, 10.0 μM) | Survival rate (%) All cells (Stem cells and ordinary cells) (cancer cells; Skin cancer, 10.0 μM)
72%: Survival rate (%) Stem cells (cancer stem cells; Gastric cancer, 20.0 μM)
